Counter-ions that a name gives are not always drawn. Like-named read-outs stand apart in the source and are kept apart here.

Consider 7 compounds from patent US20250154169A1, “COMPOUNDS AND METHODS FOR MODULATING SPLICING” (REMIX THERAPEUTICS INC., priority 2021, published 2025).

What all share (format): cell-based, human
In test [1] the test system is HTT mRNA. Kind of test: Splicing RT-qPCR assay, HTT canonical (CJ) and alternative (AJ) junction mRNA. Particulars: Homo sapiens, A673 or K562 cells, 24 hours compound treatment; for IC50: 24 h, read-out: HTT CJ (IC50, decrease in canonical junction mRNA); for AC50: read-out: HTT AJ (AC50, increase in alternative junction mRNA). In short, it runs like this:
(§1)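 A673 or K562 cells were treated 24 h at 37 °C with an 11-point 3-fold compound dilution series (top 10 uM, DMSO ≤0.25%). Lysates went to one-step RT-qPCR measuring canonical (CJ) and alternative-exon (AJ) junction transcripts, normalized to GAPDH, GUSB or PPIA.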
(Quantitative PCR measures a nucleic acid by following its amplification.)

The test system of test [2] is HTT mRNA. The test is described as follows: Splicing RT-qPCR gene panel, HTT canonical junction (CJ) mRNA. Particulars: Homo sapiens, Tables 4A/4B, read-out: HTT (IC50, decrease in CJ mRNA, gene panel). A digest of the protocol: (§2)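 Read-out: RT-qPCR of the canonical exon-exon junction transcript, ΔCt vs housekeeping gene, normalized to DMSO, RQ = 2^(−ΔΔCt), converted to percentage response. Cells, A673 or K562, were dosed 24 h at 37 °C across 11 3-fold dilutions from 10 uM.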

The subject of a further test is MYB mRNA. Kind of test: Splicing RT-qPCR assay, MYB canonical (CJ) and alternative (AJ) junction mRNA. Particulars: Homo sapiens; for AC50: read-out: MYB AJ (AC50, increase in alternative junction mRNA). A digest of the protocol:
as §1

The test system of a further test is SMN2 mRNA. The test is described as follows: Splicing RT-qPCR gene panel, SMN2 canonical junction (CJ) mRNA. Particulars: Homo sapiens, Tables 4A/4B, read-out: SMN2 (IC50, decrease in CJ mRNA, gene panel). In short, it runs like this:
as §2

In the next test the test system is Target C mRNA. Kind of test: Splicing RT-qPCR gene panel, Target C canonical junction (CJ) mRNA. Particulars: Homo sapiens, Tables 4A/4B, read-out: Target C (IC50, decrease in CJ mRNA, gene panel). A digest of the protocol:
as §2

[3] abbreviates: 24 h, A673 or K562 cells, 24 hours compound treatment, RT-qPCR.
Where [4] appears, read: 24 h, A673 or K562 cells, 24 hours compound treatment, RT-qPCR, read-out: MYB CJ (IC50, decrease in canonical junction mRNA).
The mark [5] stands for this setting: Tables 4A/4B, canonical junction qPCR panel, read-out: MYB (IC50, decrease in CJ mRNA, gene panel).

By IC50 is commonly meant the point on the concentration scale where inhibition reaches its midpoint. Usually AC50 stands for the concentration at which the activity in the assay is half-maximal. In the case of `Cc1cn2nc(-c3ccc(C(=O)NC4CCNCC4)c4oc(C)cc34)cc(F)c2n1` [Compound 283], the IC50 was 1000 to 10000 nM with HTT mRNA [1]; 1000 to 10000 nM in the test on HTT mRNA [2]; 1000 to 10000 nM in the test with MYB mRNA (setting [4]); 1000 to 10000 nM in the test with MYB mRNA (setting [5]); 100 to 1000 nM in the test with SMN2 mRNA; greater than 10000 nM with Target C mRNA. Besides, the half-maximal activity concentration (AC50) in the test on HTT mRNA [1] and in the test with MYB mRNA (setting [3]) was greater than 10000 nM throughout.
`Cc1cn2cc(NC(=O)c3ccc(N4CCNCC4)c4c[nH]nc34)cc(Cl)c2n1` [Compound 286]: the IC50 with HTT mRNA [1] was greater than 10000 nM; in the test with HTT mRNA [2] it was greater than 10000 nM; with MYB mRNA (setting [4]), 100 to 1000 nM; in the test on MYB mRNA (setting [5]), 100 to 1000 nM; with SMN2 mRNA it was 100 to 1000 nM; in the test on Target C mRNA, greater than 10000 nM. The results for the concentration at half-maximal activity (AC50) with HTT mRNA [1] and in the test with MYB mRNA (setting [3]) were greater than 10000 nM and 1000 to 10000 nM, respectively.
For the compound `CCn1cc2c(N3C[C@H]4CC[C@@H](C3)N4)ccc(C(=O)Nc3cc(F)c4nc(C)cn4c3)c2n1` [Compound 289, 4-[(1R,5S)-3,8-diazabicyclo[3.2.1]octan-3-yl]-2-ethyl-N-{8-fluoro-2-methylimidazo[1,2-a]pyridin-6-yl}indazole-7-carboxamide], the IC50 in the test with HTT mRNA [1] was 1000 to 10000 nM; in the test with HTT mRNA [2], 1000 to 10000 nM; with MYB mRNA (setting [4]), 100 to 1000 nM; with MYB mRNA (setting [5]) it was 100 to 1000 nM; in the test with SMN2 mRNA, less than 100 nM; in the test on Target C mRNA, greater than 10000 nM. Further, the AC50 is greater than 10000 nM in the test on HTT mRNA [1] and 100 to 1000 nM in the test with MYB mRNA (setting [3]).
Regarding `Cc1cn2cc(NC(=O)c3ccc(N4CCNCC4)c4cn(C(C)C)nc34)cc(F)c2n1` [Compound 290, N-{8-fluoro-2-methylimidazo[1,2-a]pyridin-6-yl}-2-isopropyl-4-(piperazin-1-yl)indazole-7-carboxamide], the IC50 is greater than 10000 nM in the test with HTT mRNA [1]; greater than 10000 nM in the test with HTT mRNA [2]; 100 to 1000 nM in the test on MYB mRNA (setting [4]); 100 to 1000 nM in the test with MYB mRNA (setting [5]); less than 100 nM in the test on SMN2 mRNA; greater than 10000 nM in the test with Target C mRNA. Further, the AC50 with HTT mRNA [1] is greater than 10000 nM; in the test on MYB mRNA (setting [3]), 100 to 1000 nM.
On to `Cc1cn2cc(NC(=O)c3ccc(N4CCNCC4)c4cn(CCO)nc34)cc(F)c2n1` [Compound 291, N-{8-fluoro-2-methylimidazo[1,2-a]pyridin-6-yl}-2-(2-hydroxyethyl)-4-(piperazin-1-yl)indazole-7-carboxamide hydrochloride], for which the IC50 was 1000 to 10000 nM in the test with HTT mRNA [1]; 1000 to 10000 nM with HTT mRNA [2]; 100 to 1000 nM in the test with MYB mRNA (setting [4]); 100 to 1000 nM in the test on MYB mRNA (setting [5]); less than 100 nM in the test on SMN2 mRNA; 1000 to 10000 nM in the test on Target C mRNA. For the same compound, the AC50 in the test with HTT mRNA [1] lay in the range of 1000 to 10000 nM; with MYB mRNA (setting [3]) it was 100 to 1000 nM.
As to `COCCn1cc2c(N3CCNCC3)ccc(C(=O)Nc3cc(F)c4nc(C)cn4c3)c2n1` [Compound 292, N-{8-fluoro-2-methylimidazo[1,2-a]pyridin-6-yl}-2-(2-methoxyethyl)-4-(piperazin-1-yl)indazole-7-carboxamide hydrochloride], the IC50 in the test with HTT mRNA [1] is 1000 to 10000 nM; in the test on HTT mRNA [2], 1000 to 10000 nM; in the test on MYB mRNA (setting [4]), less than 100 nM; in the test on MYB mRNA (setting [5]), less than 100 nM; in the test on SMN2 mRNA, less than 100 nM; in the test with Target C mRNA, 1000 to 10000 nM. In addition, the AC50 in the test with HTT mRNA [1] was 1000 to 10000 nM; in the test with MYB mRNA (setting [3]), less than 100 nM.
Regarding `Cc1cn2cc(NC(=O)c3ccc(N4CCNCC4)c4cn(C)nc34)nc(C)c2n1` [Compound 293, N-{2,8-dimethylimidazo[1,2-a]pyrazin-6-yl}-2-methyl-4-(piperazin-1-yl)indazole-7-carboxamide], the IC50 in the test with HTT mRNA [1] was 1000 to 10000 nM; in the test with HTT mRNA [2], 1000 to 10000 nM; with MYB mRNA (setting [4]) it was less than 100 nM; with MYB mRNA (setting [5]), less than 100 nM; with SMN2 mRNA it was less than 100 nM; in the test with Target C mRNA it was greater than 10000 nM. Moreover, the AC50 is 100 to 1000 nM in the test on HTT mRNA [1] and less than 100 nM in the test with MYB mRNA (setting [3]).
